Measured values: PMC9043997, “LEAP2 reduces postprandial glucose excursions and ad libitum food intake in healthy men” (Cell Reports Medicine, 2022)
Where a SMILES comes first, the peptide text is derived from it. Bridges are numbered along the chain shown (N, C = ends).

Tests used:
[1] = tested on: healthy men; test: Plasma growth hormone during LEAP2 infusion, crossover study; assay type: in vivo, human; conditions: mean ± SEM
Description: (§1) The infusion was terminated when participants had finished eating.
(§2) For analysis of plasma glucose, blood was distributed in fluoride heparin-coated tubes, centrifuged immediately for 30 s (12,100 g, room temperature) and measured bedside by the glucose oxidase method (YSI 2900 Biochemistry Analyzer; YSI Incorporated, Yellow Springs, Ohio, USA). For analysis of LEAP2, blood was collected in chilled K3EDTA tubes each containing 250 KIU of aprotinin. For analysis of acyl ghrelin, blood was collected in chilled K2EDTA tubes added 20 μL pefabloc (100 mg/mL; Merck Millipore, Burlington, Massachusetts, USA). Subsequently, pefabloc-treated plasma was acidified with HCl (12.5 μL 2M HCl per 500 μL plasma; Merck Millipore, Burlington, Massachusetts, USA). For analysis of glucagon, blood was collected in K2EDTA tubes. For analysis of GH, insulin, C-peptide, free fatty acids, glycerol, triglycerides and acetaminophen (paracetamol), blood was collected in tubes with lithium and heparin. All tubes were immediately cooled on ice, centrifuged for 15 min (2,000 g, 4°C) and stored at −80°C until analysis. LEAP2 concentrations were determined by an in-house radioimmunoassay directed against the N-terminal part of LEAP2. LEAP-2 was used for standards, and the tracer was a peptide composed of the 12 N-terminal amino acids of LEAP2, with a ^125I-labelled tyrosine added to the C-terminal end. The precision and accuracy of the assay were evaluated based on European Medicines Agency's guidelines for bioanalytical assay validation. […] Due to supply chain disruptions from the COVID-19 pandemic, acyl ghrelin was only measured in plasma samples at timepoints 0, 60, 105, 165 and 255 min. […] Plasma GH was measured by Immunodiagnostic system-iSYS assay (IS-3700; IDS Limited, Boldon, UK). The assay is based on chemiluminesence technology and was performed according to the manufacturer’|'s instructions. […] For analysis of glucagon, plasma was extracted in a final concentration of 70% ethanol. Glucagon was measured using a C-terminal directed antiserum (code number 4305) measuring glucagon of pancreatic origin as previously described.[40] […] Plasma insulin and C-peptide were measured using a two-sided electrochemiluminescence immunoassay (Atellica IM Analyzer; Siemens Healthcare, Ballerup, Denmark). Plasma triglycerides and acetaminophen were analyzed by spectrophotometric methods following enzymatic hydrolysis and oxidation (Siemens Atellica CH 930; Siemens Healthcare, Ballerup, Denmark). Plasma concentrations of free fatty acids and glycerol were determined by enzymatic methods modified to run on a COBAS 6000 automatic analyzer (Roche, Rødovre, Denmark) using a NEFA-HR assay (Wako Chemicals, Neuss, Germany) and glycerol assay (Randox Laboratories, Crumlin, UK), respectively.
(§3) Unless otherwise stated, results are presented as mean ± SEM. Baseline values were calculated as a mean of timepoints −35, −10 and 0 min or, when only available −10 and 0 min. Baseline values for the postprandial period were calculated as a mean of timepoint 60 min. Calculations of AUC were based on the trapezoidal rule. AUC values are reported for the period 0 to 255 min. To assess the fasting and postprandial periods separately, AUC values are reported for the periods 0 to 60 min and 60 to 255 min, respectively. Student’s paired t test was used to test for differences in baseline, peak, time to peak, AUC and mean values and ad libitum food intake in men.

[2] = tested on: healthy men; test: Plasma acyl ghrelin during LEAP2 infusion, crossover study; assay type: in vivo, human; conditions: mean ± SEM
Description: as §1, §2, §3

[3] = tested on: GHSR-null mice; test: Plasma glucose and food intake after subcutaneous LEAP2 in GHSR-null mice; assay type: in vivo, mouse; conditions: female GHSR-null mice n = 8, LEAP2 3 μmol/kg subcutaneous
Experimental: Food intake and blood glucose measurements were measured in female GHSR-null mice (n = 8) and wild-type littermates (n = 10) (14–24 weeks of age). Mice were double-housed with matching genotype and age. All mice were fasted for four hours and randomized by mean body weight per cage and allocated into either vehicle (saline) or LEAP2 administration on the first day of the study. LEAP2 or vehicle was administered subcutaneously just before start of dark phase (6 PM). By start of dark phase, mice had ad libitum access to water and a normal chow diet. Cumulative food intake was measured one, two and four hours after administration and calculated as the average food intake per cage per g body weight of each mouse, respectively. Blood glucose was measured in blood from a tail puncture at baseline and one, two and four hours after administration by use of a glucometer (Contour ™xt meter; Ascensia Diabetes Care, Basel, Switzerland). One week later, mice underwent the same procedure, but with the opposite treatment. The concentration of the LEAP2 dose was 3 μmol/kg.

[4] = tested on: healthy men; test: Brown adipose tissue thermogenesis by thermal imaging; assay type: in vivo, human; conditions: iv LEAP2 ~25 pmol/kg/min, thermal imaging camera
Experimental: To assess BAT thermogenesis, temperature of the upper chest was measured from −10 to 0 min, 0 to 15 min, 90 to 105 min and 180 to 195 min using a thermal imaging camera (FLIR A655sc; FLIR Systems, Wilsonville, Oregon, USA). Participants were positioned approximately one meter from the camera in a hospital bed with slight elevation of the head and wearing long-sleeved shirts that exposed the upper chest. The emissivity for measurement of human skin temperatures was set to 0.98 as detailed by the manufacturer. Thermal images were collected at 30-s intervals and analyzed using the FLIR tools program (FLIR Systems, Wilsonville, Oregon, USA). Post hoc, the two supraclavicular regions and a region corresponding to the manubrium of the sternum were marked as regions of interest and the maximum temperature per image was recorded. An average of records from the two supraclavicular regions was used. The manubrium region was used as a negative control reflecting the overall cutaneous heat production.[37], [38], [39] For analysis of BAT thermogenesis, manubrium-corrected temperature was calculated as the average of the supraclavicular skin temperatures minus the manubrium skin temperature. […] Average room temperature was 22.5 ± 0.06 °C adjusted by two air conditioners (Electrolux EXP35U538CW; AB Electrolux, Stockholm, Sweden) and recorded four times during each experimental day. […]

[5] = tested on: healthy men; test: Plasma insulin, C-peptide and C-peptide/glucose ratio during LEAP2 infusion, crossover study; assay type: in vivo, human; conditions: mean ± SEM
Description: as §1, §2, §3

[6] = healthy men n = 20, LEAP2 day, before infusion
[7] = healthy men n = 20, iv LEAP2 ~25 pmol/kg/min, 0 to 255 min
[8] = healthy men n = 20, iv LEAP2 ~25 pmol/kg/min, fasting period
[9] = healthy men n = 20, iv LEAP2 ~25 pmol/kg/min, liquid mixed meal at 65 min
[10] = healthy men n = 20, iv LEAP2 ~25 pmol/kg/min, postprandial period
[11] = healthy men n = 20, iv LEAP2 ~25 pmol/kg/min, time = 60 min

CC[C@H](C)[C@@H]1NC(=O)[C@@H]2CSSC[C@@H](C(=O)N[C@@H](CO)C(=O)N[C@@H](CC(C)C)C(=O)N[C@@H](CO)C(=O)N[C@H](C(=O)N[C@@H](C)C(=O)N[C@@H](CCC(N)=O)C(=O)N[C@@H](CCC(=O)O)C(=O)O)C(C)C)NC(=O)[C@H](CCCNC(=N)N)NC(=O)[C@H](CCCNC(=N)N)NC(=O)[C@H](CCCCN)NC(=O)[C@H](CCCNC(=N)N)NC(=O)[C@H](CSSC[C@H](NC(=O)[C@H](CO)NC(=O)[C@H](C)NC(=O)CNC(=O)[C@@H](NC(=O)[C@@H]3CCCN3C(=O)[C@H](CCCNC(=N)N)NC(=O)[C@H](CC(C)C)NC(=O)[C@H](CO)NC(=O)[C@@H](NC(=O)CNC(=O)[C@H](CCCNC(=N)N)NC(=O)[C@H](Cc3c[nH]c4ccccc34)NC(=O)[C@H](Cc3ccccc3)NC(=O)[C@@H]3CCCN3C(=O)[C@@H](NC(=O)[C@@H](N)CCSC)[C@@H](C)O)C(C)C)[C@@H](C)CC)C(=O)N[C@@H](CCCNC(=N)N)C(=O)N[C@@H](CC(=O)O)C(=O)N[C@@H](CC(=O)O)C(=O)N[C@@H](CO)C(=O)N[C@@H](CCC(=O)O)C(=O)N2)NC(=O)[C@H](CC(C)C)NC(=O)[C@H](CCCNC(=N)N)NC(=O)[C@H]([C@@H](C)O)NC1=O [LEAP2, liver-expressed antimicrobial peptide 2] (H-MTPFWRGVSLRPIGASCRDDSECITRLCRKRRCSLSVAQE-OH; disulfide 17-28, 23-33 (inferred); N-terminus and C-terminus assumed)
Growth hormone Baseline [1, 6]: 0.594 ± 0.300 ng/mL | Growth hormone AUC [1, 7]: 33.8 ± 11.8 ng·min/mL | Growth hormone AUC0–60 min [1, 8]: 20.2 ± 9.76 ng·min/mL | Growth hormone Nadir [1, 9]: 0.042 ± 0.004 ng/mL | Growth hormone Time to nadir [1, 9]: 116 ± 17.2 min | Growth hormone AUC60–255 min [1, 10]: 13.6 ± 2.32 ng·min/mL | Growth hormone Postprandial baseline [1, 11]: 0.121 ± 0.048 ng/mL | Acyl ghrelin Baseline [2, 6]: 0.155 ± 0.011 ng/mL | Acyl ghrelin AUC [2, 7]: 31.2 ± 1.94 ng·min/mL | Acyl ghrelin AUC0–60 min [2, 8]: 9.50 ± 0.67 ng·min/mL | Acyl ghrelin Nadir [2, 9]: 0.088 ± 0.006 ng/mL | Acyl ghrelin AUC60–255 min [2, 10]: 21.7 ± 1.33 ng·min/mL | Acyl ghrelin Postprandial baseline [2, 11]: 0.161 ± 0.012 ng/mL | cumulative food intake after dosing vs vehicle [3]: no effect | plasma glucose after dosing vs vehicle [3]: did not affect plasma glucose | BAT thermogenesis (manubrium-corrected supraclavicular skin temperature), LEAP2 vs placebo [4]: no differences | C-peptide Baseline [5, 6]: 360 ± 21.4 pmol/L | Insulin Baseline [5, 6]: 36.4 ± 1.70 pmol/L | C-peptide AUC [5, 7]: 218 ± 11.7 nmol·min/L | Insulin AUC [5, 7]: 33.8 ± 2.63 nmol·min/L | C-peptide AUC0–60 min [5, 8]: 22.5 ± 1.18 nmol·min/L | Insulin AUC0–60 min [5, 8]: 2.39 ± 0.09 nmol·min/L | C-peptide Peak [5, 9]: 1,524 ± 106 pmol/L | C-peptide Time to peak [5, 9]: 136 ± 9.01 min | Insulin Peak [5, 9]: 347 ± 38.6 pmol/L | Insulin Time to peak [5, 9]: 110 ± 6.28 min | C-peptide AUC60–255 min [5, 10]: 196 ± 11.2 nmol·min/L | Insulin AUC60–255 min [5, 10]: 31.5 ± 2.60 nmol·min/L | C-peptide Postprandial baseline [5, 11]: 365 ± 20.2 pmol/L | Insulin Postprandial baseline [5, 11]: 38.6 ± 2.09 pmol/L
